Test results published in patent publication US20250228239A1, “MOLECULES HAVING PESTICIDAL UTILITY, AND INTERMEDIATES, COMPOSITIONS, AND PROCESSES, RELATED THERETO” (priority 2024, published 2025).

Key:
Assay type in all cases: in vivo
[1] = system: Yellow Fever Mosquito (Aedes aegypti, AEDSAE); settings: Table ABC: Biological Results; species YFM
Method: Certain molecules disclosed in this document were tested against YFM using procedures described in the following paragraph. In the reporting of the results, the “GPA & YFM Rating Table” was used (See Table Section).
Master plates containing 400 μg of a molecule dissolved in 100 μL of dimethyl sulfoxide (DMSO) (equivalent to a 4000 ppm solution) are used. A master plate of assembled molecules contains 15 μL per well. To this plate, 135 μL of a 90:10 water/acetone mixture is added to each well. A robot (Biomek® NXP Laboratory Automation Workstation) is programmed to dispense 15 μL aspirations from the master plate into an empty 96-well shallow plate (“daughter” plate). There are 6 reps (“daughter” plates) created per master. The created “daughter” plates are then immediately infested with YFM larvae.
The day before plates are to be treated, mosquito eggs are placed in Millipore water containing liver powder to begin hatching (4 g into 400 mL). After the “daughter” plates are created using the robot, they are infested with 220 μL of the liver powder/larval mosquito mixture (about 1 day-old larvae). After plates are infested with mosquito larvae, a non-evaporative lid is used to cover the plate to reduce drying. Plates are held at room temperature for 3 days prior to grading. After 3 days, each well is observed and scored based on mortality. The results are indicated in the table entitled “Table ABC: Biological Results” (See Table Section).

[2] = system: Beet Armyworm (Spodoptera exigua, LAPHEG); assay: Bioassays on Beet Armyworm (BAW), 128-well diet tray assay; settings: Spodoptera exigua; Table ABC: Biological Results; species BAW; read-out: BAW
In short: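 Test molecule was dissolved in 90:10 acetone-water and applied at 50 μg/cm^2 onto artificial diet in eight wells, then dried. Second instar larvae, one to five per well, were added, and trays were kept vented at 25° C. with a 14:10 photoperiod for five to seven days before mortality was recorded.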

[3] = system: Cabbage Looper (Trichoplusia ni, TRIPNI); assay: Bioassays on Cabbage Looper (CL), 128-well diet tray assay; settings: Trichoplusia ni; Table ABC: Biological Results; species CL; read-out: CL
In short: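 Activity is mean percent mortality over eight wells of second-instar larvae exposed to diet treated at 50 μg/cm^2 for 5–7 days at 25° C.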

## O=C(Nc1ccc(F)cc1F)c1cc(NC(=O)[C@H]2[C@@H](c3cc(F)c(F)c(Br)c3)C2(Cl)Cl)ccc1Cl (relative stereo) [F1012, cis-5-(3-(3-Bromo-4,5-difluorophenyl)-2,2-dichlorocyclopropane-1-carboxamido)-2-chloro-N-(2,4-difluorophenyl)benzamide]
[1]
  YFM: A (80–100)
[2]
  pest or weed control at 50 µg/cm2: 50 to 100%
[3]
  pest or weed control at 50 µg/cm2: 50 to 100%

## CC(C)(C)OC(=O)Nc1ccc(F)c(NC(=O)c2cc(NC(=O)[C@H]3[C@H](c4cc(Cl)cc(Cl)c4)C3(Cl)Cl)ccc2Cl)c1F (relative stereo) [F1023, trans-tert-Butyl-(3-(2-chloro-5-(2,2-dichloro-3-(3,5-dichlorophenyl)cyclopropane-1-carboxamido)benzamido)-2,4-difluorophenyl)carbamate]
[1]
  YFM: A (80–100)
[2]
  pest or weed control at 50 µg/cm2: 50 to 100%
[3]
  pest or weed control at 50 µg/cm2: 50 to 100%

## O=C(Nc1ccc(F)cc1F)c1cc(NC(=O)[C@H]2[C@H](c3cc(F)c(Cl)c(Cl)c3)C2(Cl)Cl)ccc1Cl (relative stereo) [F1024, trans-2-Chloro-5-(2,2-dichloro-3-(3,4-dichloro-5-fluorophenyl)cyclopropane-1-carboxamido)-N-(2,4-difluorophenyl)benzamide]
[1]
  YFM: A (80–100)
[2]
  pest or weed control at 50 µg/cm2: 50 to 100%
[3]
  pest or weed control at 50 µg/cm2: 50 to 100%

## O=C(Nc1ccc(F)cc1F)c1cc(NC(=O)[C@H]2[C@@H](c3cc(F)c(Cl)c(Cl)c3)C2(Cl)Cl)ccc1Cl (relative stereo) [F1025, cis-2-Chloro-5-(2,2-dichloro-3-(3,4-dichloro-5-fluorophenyl)cyclopropane-1-carboxamido)-N-(2,4-difluorophenyl)benzamide]
[1]
  YFM: A (80–100)
[2]
  pest or weed control at 50 µg/cm2: 50 to 100%
[3]
  pest or weed control at 50 µg/cm2: 50 to 100%

## Nc1ccc(F)c(NC(=O)c2cc(NC(=O)[C@H]3[C@H](c4cc(Cl)cc(Cl)c4)C3(Cl)Cl)ccc2Cl)c1F (relative stereo) [F1026, trans-N-(3-Amino-2,6-difluorophenyl)-2-chloro-5-(2,2-dichloro-3-(3,5-dichlorophenyl)cyclopropane-1-carboxamido)benzamide]
[1]
  YFM: A (80–100)
[2]
  pest or weed control at 50 µg/cm2: 50 to 100%
[3]
  pest or weed control at 50 µg/cm2: 50 to 100%

## O=C(Nc1ccc(F)cc1F)c1cc(NC(=O)[C@H]2[C@H](c3cc(Br)cc(S(F)(F)(F)(F)F)c3)C2(Cl)Cl)ccc1Cl (relative stereo) [F1031, trans-5-(3-(3-Bromo-5-(pentafluoro-λ^6-sulfanyl)phenyl)-2,2-dichlorocyclopropane-1-carboxamido)-2-chloro-N-(2,4-difluorophenyl)benzamide]
[1]
  YFM: A (80–100)
[2]
  pest or weed control at 50 µg/cm2: 50 to 100%
[3]
  pest or weed control at 50 µg/cm2: 50 to 100%

## O=C(Nc1ccc(F)cc1F)c1cc(NC(=O)[C@H]2[C@@H](c3ccc(F)c(Cl)c3F)C2(Cl)Cl)ccc1Cl (relative stereo) [F1033, cis-2-Chloro-5-(2,2-dichloro-3-(3-chloro-2,4-difluorophenyl)cyclopropane-1-carboxamido)-N-(2,4-difluorophenyl)benzamide]
[1]
  YFM: A (80–100)
[2]
  pest or weed control at 50 µg/cm2: 50 to 100%
[3]
  pest or weed control at 50 µg/cm2: 50 to 100%

## O=C(Nc1ccc(F)cc1F)c1cc(NC(=O)[C@H]2[C@H](c3ccc(F)c(Cl)c3F)C2(Cl)Cl)ccc1Cl (relative stereo) [F1034, trans-2-Chloro-5-(2,2-dichloro-3-(3-chloro-2,4-difluorophenyl)cyclopropane-1-carboxamido)-N-(2,4-difluorophenyl)benzamide]
[1]
  YFM: A (80–100)
[2]
  pest or weed control at 50 µg/cm2: 50 to 100%
[3]
  pest or weed control at 50 µg/cm2: 50 to 100%

## COc1ccc(CNc2ccc(NC(=O)c3cc(NC(=O)[C@H]4[C@H](c5cc(Cl)cc(Cl)c5)C4(Cl)Cl)ccc3Cl)c(C)c2)cc1 (relative stereo) [F1035, trans-2-Chloro-5-(2,2-dichloro-3-(3,5-dichlorophenyl)cyclopropane-1-carboxamido)-N-(4-((4-methoxybenzyl)amino)-2-methylphenyl)benzamide]
[1]
  YFM: A (80–100)
[2]
  pest or weed control at 50 µg/cm2: 50 to 100%
[3]
  pest or weed control at 50 µg/cm2: 50 to 100%

## Nc1c(F)ccc(NC(=O)c2cc(NC(=O)[C@H]3[C@H](c4ccc(Cl)c(C(F)F)c4)C3(Cl)Cl)ccc2Cl)c1F (relative stereo) [F1037, trans-N-(3-Amino-2,4-difluorophenyl)-2-chloro-5-(2,2-dichloro-3-(4-chloro-3-(difluoromethyl)phenyl)cyclopropane-1-carboxamido)benzamide]
[1]
  YFM: A (80–100)
[2]
  pest or weed control at 50 µg/cm2: 50 to 100%
[3]
  pest or weed control at 50 µg/cm2: 50 to 100%

## Nc1c(F)ccc(NC(=O)c2cc(NC(=O)[C@H]3[C@H](c4cc(Cl)cc(C(F)F)c4)C3(Cl)Cl)ccc2Cl)c1F (relative stereo) [F1038, trans-N-(3-Amino-2,4-difluorophenyl)-2-chloro-5-(2,2-dichloro-3-(3-chloro-5-(difluoromethyl)phenyl)cyclopropane-1-carboxamido)benzamide]
[1]
  YFM: A (80–100)
[2]
  pest or weed control at 50 µg/cm2: 50 to 100%
[3]
  pest or weed control at 50 µg/cm2: 50 to 100%

## CN(C(=O)c1cc(NC(=O)[C@H]2[C@H](c3cc(Cl)cc(Cl)c3)C2(Cl)Cl)ccc1C#N)c1ccc(F)cc1F (relative stereo) [F1039, trans-2-Cyano-5-(2,2-dichloro-3-(3,5-dichlorophenyl)cyclopropane-1-carboxamido)-N-(2,4-difluorophenyl)-N-methylbenzamide]
[1]
  YFM: A (80–100)
[2]
  pest or weed control at 50 µg/cm2: 50 to 100%
[3]
  pest or weed control at 50 µg/cm2: 50 to 100%

## Cc1cc(NCc2ccc(C#N)cc2)ccc1NC(=O)c1cc(NC(=O)[C@H]2[C@H](c3cc(Cl)cc(Cl)c3)C2(Cl)Cl)ccc1Cl (relative stereo) [F1040, trans-2-Chloro-N-(4-((4-cyanobenzyl)amino)-2-methylphenyl)-5-(2,2-dichloro-3-(3,5-dichlorophenyl)cyclopropane-1-carboxamido)benzamide]
[1]
  YFM: A (80–100)
[2]
  pest or weed control at 50 µg/cm2: 50 to 100%
[3]
  pest or weed control at 50 µg/cm2: 50 to 100%

## Nc1c(F)ccc(NC(=O)c2cc(NC(=O)[C@H]3[C@H](c4cc(Br)cc(S(F)(F)(F)(F)F)c4)C3(Cl)Cl)ccc2Cl)c1F (relative stereo) [F1042, trans-N-(3-Amino-2,4-difluorophenyl)-5-(3-(3-bromo-5-(pentafluoro-λ^6-sulfanyl)phenyl)-2,2-dichlorocyclopropane-1-carboxamido)-2-chlorobenzamide]
[1]
  YFM: A (80–100)
[2]
  pest or weed control at 50 µg/cm2: 50 to 100%
[3]
  pest or weed control at 50 µg/cm2: 50 to 100%

## Nc1c(F)ccc(NC(=O)c2cc(NC(=O)[C@H]3[C@@H](c4cc(Br)cc(S(F)(F)(F)(F)F)c4)C3(Cl)Cl)ccc2Cl)c1F (relative stereo) [F1043, cis-N-(3-Amino-2,4-difluorophenyl)-5-(3-(3-bromo-5-(pentafluoro-λ^6-sulfanyl)phenyl)-2,2-dichlorocyclopropane-1-carboxamido)-2-chlorobenzamide]
[1]
  YFM: A (80–100)
[2]
  pest or weed control at 50 µg/cm2: 50 to 100%
[3]
  pest or weed control at 50 µg/cm2: 50 to 100%

## Nc1c(F)ccc(NC(=O)c2cc(NC(=O)[C@H]3[C@H](c4cc(F)c(F)c(Br)c4)C3(Cl)Cl)ccc2Cl)c1F (relative stereo) [F1044, trans-N-(3-Amino-2,4-difluorophenyl)-5-(3-(3-bromo-4,5-difluorophenyl)-2,2-dichlorocyclopropane-1-carboxamido)-2-chlorobenzamide]
[1]
  YFM: A (80–100)
[2]
  pest or weed control at 50 µg/cm2: 50 to 100%
[3]
  pest or weed control at 50 µg/cm2: 50 to 100%

## Nc1c(F)ccc(NC(=O)c2cc(NC(=O)[C@H]3[C@@H](c4cc(F)c(F)c(Br)c4)C3(Cl)Cl)ccc2Cl)c1F (relative stereo) [F1045, cis-N-(3-Amino-2,4-difluorophenyl)-5-(3-(3-bromo-4,5-difluorophenyl)-2,2-dichlorocyclopropane-1-carboxamido)-2-chlorobenzamide]
[1]
  YFM: A (80–100)
[2]
  pest or weed control at 50 µg/cm2: 50 to 100%
[3]
  pest or weed control at 50 µg/cm2: 50 to 100%

## Nc1c(F)ccc(NC(=O)c2cc(NC(=O)[C@H]3[C@H](c4cc(F)c(Cl)c(Cl)c4)C3(Cl)Cl)ccc2Cl)c1F (relative stereo) [F1046, trans-N-(3-Amino-2,4-difluorophenyl)-2-chloro-5-(2,2-dichloro-3-(3,4-dichloro-5-fluorophenyl)cyclopropane-1-carboxamido)benzamide]
[1]
  YFM: A (80–100)
[2]
  pest or weed control at 50 µg/cm2: 50 to 100%
[3]
  pest or weed control at 50 µg/cm2: 50 to 100%
